Measured values published in US20240181007A1, “COMPOSITIONS AND METHODS FOR TREATING PULMONARY HYPERTENSION” (Acceleron Pharma Inc., priority 2021, published 2024).

Assays:
TAC-PH mice [1] = test: Transverse aortic constriction (TAC) induced PH mouse model, BALB/cJ (Example 12); type: in vivo; details: day 42, relative to TAC PBS
Description: (§1) The effects of an ActRIIA-mFc fusion polypeptide (SEQ ID NO: 56) was examined in a mouse model of left ventricular systolic dysfunction (also referred to as HErEF) of pulmonary hypertension (PH) and valvular heart disease. In this model, BALB/cJ mice underwent transverse aortic constriction (TAC) to induce left heart failure, and right heart and pulmonary remodeling. See, e.g., Xiong P Y. et al. Hypertension 2018, 71(1):34-55 and Chen Y. et al. Hypertension 2012, 59(6):1170-1178.
Forty-four BALB/cJ male mice (10 wks old) underwent TAC surgery and fourteen age-matched animals underwent a mock surgical procedure (Sham) at day 0. Two weeks after the surgery, TAC-PH mice were randomized into three groups. i) fourteen mice were injected subcutaneously with vehicle control (phosphate buffered saline (PBS)), twice weekly for 4 weeks starting from day 14 after surgery, “TAC PBS”; ii) fifteen mice were injected subcutaneously with ActRIIA-mFc at a dose of 3 mg/kg twice weekly for 4 weeks starting from day 14 after TAC surgery, “TAC ActRIIA-mFc 3 mpk”; and iii) fifteen mice were injected subcutaneously with ActRIIA-mFc at a dose of 10 mg/kg twice weekly for 4 weeks starting from day 14 after TAC surgery, “TAC ActRIIA-mFc 10 mpk.” At the end of the study, echocardiography and pressure-volume catheter were performed to measure left and right ventricular remodeling and functional changes before animals were euthanized for heart and lung collection. Hearts and lungs of each mouse were weighed, fixed in 10% formalin, embedded in paraffin, and sectioned for Masson's trichrome stain to assess fibrosis.
(§2) Prior to euthanasia, in vivo cardiac function was assessed by transthoracic echocardiography (Acuson P300, 18 MHz transducer; Siemens) in conscious mice. From left ventricle (LV) short axis view, M-mode echocardiogram was acquired to measure left ventricle end diastolic diameter (LVEDD), and left ventricle end systolic diameter (LVESD). Fractional shortening (FS) was calculated from the end-diastolic diameter (EDD) and end-systolic diameter (ESD) using the following equation: FS=100%×[(EDD−ESD)/EDD]. Early diastolic filling peak velocity (E), early diastolic mitral annular velocity (E′), and isovolumetric relaxation time (IVRT) were measured from the medial or septal wall at the mitral valve level from tissue Doppler image. LV diastolic function was assessed by measuring the E/E′ ratio and IVRT. Three to five beats were averaged for each mouse measurement. RV free wall thickness (RVFWT) was measured using M-mode in a modified parasternal long-axis view through the aortic valve. Pulmonary artery acceleration time (PAAT) was measured as the time from start to peak velocity of blood flow in the lumen of the main pulmonary artery distal to the pulmonary valve as obtained from the pulse-wave doppler recording.
On day 42, mice were anesthetized by an intraperitoneal injection of ketamine/xylazine (100/5 mg/kg) to evaluate left and right ventricular function by Millar pressure-volume conductance catheter. The respiration was supported by a small animal ventilator.
Thoracotomy was made through 4-5 intercostal space, and the heart was exposed. A pressure-volume catheter (1.0-Fr, PVR-1035, Millar Instruments, Houston, TX, USA) was inserted into the left ventricle and right ventricle from the apex. Ventricular pressure and volume were calculated with LabChart 7 software. Ejection fraction was derived. Afterwards, animals were euthanized for heart and lung collection. Cardiac hypertrophy was measured by heart weight (HW) normalized by tibial length (TL). Left ventricle (LV), right ventricle (RV) and lung of each mouse were separated, fixed in 10% formalin, embedded in paraffin, and sectioned for Masson's trichrome stain to assess fibrosis. Serum and urine samples were collected at the end of the study.

TAC-PH mice [2] = test: Transverse aortic constriction (TAC) induced PH mouse model, C57BL/6 (Example 9); type: in vivo; details: 10 mg/kg s.c. twice weekly for 4 weeks from day 14 after TAC, day 42, relative to TAC-PH/PBS
Description: as §1, with “(PH).” for “(PH) and valvular heart disease.”, “C57BL/6” for “BALB/cJ”, “Y,” for “Y.”
Twenty-six C57/B6 male mice (10 wks old) underwent TAC surgery and ten age-matched animals underwent a mock surgical procedure (Sham) at day 0. Two weeks after the surgery, TAC-PH mice were randomized into two groups. i) fourteen mice were injected subcutaneously with vehicle control (phosphate buffered saline (PBS)), twice weekly for 4 weeks starting from day 14 after surgery, “TAC-PH/PBS”: and a ii) twelve mice were injected subcutaneously with ActRIIA-mFc at a dose of 10 mg/kg twice weekly for 4 weeks starting from day 14 after TAC surgery, “TAC-PH/ActRII-mFc”. At the end of the study, echocardiography and pressure-volume catheter were performed to measure left and right ventricular remodeling and functional changes before animals were euthanized for heart and lung collection. Hearts and lungs of each mouse were weighed, fixed in 10% formalin, embedded in paraffin, and sectioned for Masson's trichrome stain to assess fibrosis.
as §2, with “Tricuspid annular plane systolic excursion (TAPSE), a parameter of global right ventricular function,” for “RV free wall thickness (RVFWT)”, “also measured.” for “measured using M-mode in a modified parasternal long-axis view through the aortic valve. Pulmonary artery acceleration time (PAAT) was measured as the time from start to peak velocity of blood flow in the lumen of the main pulmonary artery distal to the pulmonary valve as obtained from the pulse-wave doppler recording.”
On day 42, mice were anesthetized by an intraperitoneal injection of ketamine/xylazine (100/5 mg/kg) to evaluate left and right ventricular function by Millar pressure-volume conductance catheter. The respiration was supported by a small animal ventilator. Thoracotomy was made through 4-5 intercostal space, and the heart was exposed. A pressure-volume catheter (1.0-Fr, PVR-1035, Millar Instruments, Houston, TX, USA) was inserted into the left ventricle and right ventricle from the apex. Ventricular pressure and volume were calculated with LabChart 7 software. Stroke work, ejection fraction, maximum and minimum rate of pressure development (+dp/dtm, −dp/dtm) were derived.

ActRIIA-mFc: ActRIIA-mFc fusion polypeptide (SEQ ID NO: 56); extracellular domain fused to murine IgG2a Fc domain with a linker
LV ejection fraction (TAC-PH mice [1]; 3 mpk or 10 mpk s.c. twice weekly for 4 weeks from day 14 after TAC, FIG. 45): restored LV ejection fraction | cardiac hypertrophy, heart weight/tibia length (HW/TL) (TAC-PH mice [1]; 3 mpk or 10 mpk s.c. twice weekly for 4 weeks from day 14 after TAC, FIG. 46): significantly reduced cardiac hypertrophy | IVRT (TAC-PH mice [1]; 3 mpk or 10 mpk s.c. twice weekly for 4 weeks from day 14 after TAC, FIG. 48): reduced IVRT | RVSP (TAC-PH mice [1]; 3 mpk or 10 mpk s.c. twice weekly for 4 weeks from day 14 after TAC, FIG. 49): reduced RVSP | RVFWT (TAC-PH mice [1]; 3 mpk or 10 mpk s.c. twice weekly for 4 weeks from day 14 after TAC, FIG. 50): significantly reduced elevated RVFWT | PAAT (TAC-PH mice [1]; 3 mpk or 10 mpk s.c. twice weekly for 4 weeks from day 14 after TAC, FIG. 51): increased PAAT | LV fibrosis (TAC-PH mice [1]; 3 mpk or 10 mpk s.c. twice weekly for 4 weeks from day 14 after TAC, FIG. 52): significantly reduced | RV fibrosis (TAC-PH mice [1]; 3 mpk or 10 mpk s.c. twice weekly for 4 weeks from day 14 after TAC, FIG. 53): significantly reduced | lung fibrosis (TAC-PH mice [1]; 3 mpk or 10 mpk s.c. twice weekly for 4 weeks from day 14 after TAC, FIG. 54): significantly reduced lung fibrosis | E/E′ ratio (TAC-PH mice [1]; 3 mpk s.c. twice weekly for 4 weeks from day 14 after TAC, FIG. 47): reduced E/E′ ratio at 3 mpk | cardiac hypertrophy, heart weight/body weight (HW/BW) (TAC-PH mice [2]; FIG. 15): significantly reduced cardiac hypertrophy | fractional shortening (FS) (TAC-PH mice [2]; FIG. 16): elevated FS | LV ejection fraction (TAC-PH mice [2]; FIG. 17): restored LV ejection fraction | E/E′ ratio (TAC-PH mice [2]; FIG. 18): reduced E/E′ ratio | isovolumetric relaxation time (IVRT) (TAC-PH mice [2]; FIG. 19): reduced IVRT | right ventricle free wall thickness (RVFWT) (TAC-PH mice [2]; FIG. 20): significantly reduced elevated RVFWT | tricuspid annular plane systolic excursion (TAPSE) (TAC-PH mice [2]; FIG. 21): increased reduced TAPSE | RV stroke work (TAC-PH mice [2]; FIG. 22): reduced elevated RV stroke work | minimum rate of pressure development in RV (−dp/dTmin) (TAC-PH mice [2]; FIG. 23): decreased increased RV−dp/dTmin | lung weight (LW/TL) (TAC-PH mice [2]; FIG. 24): decreased lung weight | lung fibrosis (TAC-PH mice [2]; FIG. 25): significantly reduced lung fibrosis
